{
  "source": "patent US20240083857A1",
  "about": "“2-Methyl-Quinazolines” (Bayer Pharma Aktiengesellschaft, priority 2017, published 2024)",
  "key": {"[1]": {"biological_target": "human SOS1 (nucleotide exchange of K-Ras^G12C) (Homo sapiens, UniProt Q07889)", "experiment": "Biochemical assay 2: K-Ras^G12C activation assay by hSOS1 at high GTP concentration (HTRF)", "details": "high GTP; for inhibition at 20 µM: read-out: Assay 2 (KRAS-Activation by SOS high GTP) activity expressed as % inhibition at 20 μM; for IC50: read-out: Assay 2 (KRAS-Activation by SOS high GTP) activity expressed as IC50"}, "[2]": {"biological_target": "Epidermal Growth Factor Receptor (EGFR) (Homo sapiens (Human), UniProt P00533)", "sequence (P00533 25-1210)": "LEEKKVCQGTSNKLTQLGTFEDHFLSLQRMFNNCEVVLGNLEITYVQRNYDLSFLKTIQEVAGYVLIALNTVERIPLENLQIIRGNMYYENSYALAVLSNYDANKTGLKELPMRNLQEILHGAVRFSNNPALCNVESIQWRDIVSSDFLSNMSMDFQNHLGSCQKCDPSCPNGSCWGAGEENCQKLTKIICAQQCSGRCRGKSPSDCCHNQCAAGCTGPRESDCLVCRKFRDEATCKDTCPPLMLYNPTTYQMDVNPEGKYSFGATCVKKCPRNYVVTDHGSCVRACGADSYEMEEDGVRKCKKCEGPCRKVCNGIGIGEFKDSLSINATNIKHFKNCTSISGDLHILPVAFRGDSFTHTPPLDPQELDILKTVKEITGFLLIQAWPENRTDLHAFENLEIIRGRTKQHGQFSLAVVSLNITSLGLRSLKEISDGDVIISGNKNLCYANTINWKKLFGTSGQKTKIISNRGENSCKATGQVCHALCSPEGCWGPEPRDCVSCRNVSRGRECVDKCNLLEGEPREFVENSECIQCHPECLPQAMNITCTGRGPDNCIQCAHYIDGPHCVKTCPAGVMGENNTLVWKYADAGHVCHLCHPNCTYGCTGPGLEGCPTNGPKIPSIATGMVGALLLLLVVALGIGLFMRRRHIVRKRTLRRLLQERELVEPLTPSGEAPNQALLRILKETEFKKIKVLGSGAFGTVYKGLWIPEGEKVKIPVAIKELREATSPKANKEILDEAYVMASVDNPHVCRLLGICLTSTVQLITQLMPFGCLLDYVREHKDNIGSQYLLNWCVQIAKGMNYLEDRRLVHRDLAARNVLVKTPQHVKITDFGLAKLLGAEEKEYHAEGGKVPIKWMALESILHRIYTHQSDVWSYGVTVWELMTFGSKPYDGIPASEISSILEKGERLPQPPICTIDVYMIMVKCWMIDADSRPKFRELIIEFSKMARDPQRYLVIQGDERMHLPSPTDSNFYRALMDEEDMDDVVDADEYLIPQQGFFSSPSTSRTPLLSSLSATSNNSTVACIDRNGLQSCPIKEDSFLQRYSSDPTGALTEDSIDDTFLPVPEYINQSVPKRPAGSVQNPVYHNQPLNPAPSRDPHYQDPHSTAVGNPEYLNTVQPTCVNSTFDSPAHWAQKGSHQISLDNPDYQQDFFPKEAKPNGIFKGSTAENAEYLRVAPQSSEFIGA", "experiment": "EGFR kinase assay (TR-FRET)", "assay_type": "biochemical", "details": "read-out: EGFR kinase inhibition IC50", "procedure,_shortened": "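EGFR purified from A431 cells was preincubated with compound 15 min at 22° C in pH 7.0 Hepes buffer with MgCl2, MnCl2 and vanadate before reaction with a biotinylated peptide. After EDTA stop, phosphopeptide was detected by TR-FRET (anti-phosphotyrosine Tb-cryptate, streptavidin-XL665) as the 665/620 nm emission ratio.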"}},
  "note": "Where two headings read alike, the source gives them in different places.",
  "data": [
    {"smiles": "COc1cc2nc(C)nc(N[C@H](C)c3ccc(C4=CCN(C)CC4)cc3)c2cc1OC", "note": "[Example 201, 6,7-dimethoxy-2-methyl-N-{(1R)-1-[4-(1-methyl-1,2,3,6-tetrahydropyridin-4-yl)phenyl]ethyl}quinazolin-4-amine]", "values": [
      {"measurement": "inhibition at 20 µM", "setting": "[1]", "result": 20, "unit": "%"},
      {"measurement": "IC50", "setting": "[2]; values given in μM", "result": "> 20", "unit": "µM"}
    ]},
    {"smiles": "COc1cc2nc(C)nc(N[C@H](C)c3cccc(C4=CCN(C)CC4)c3)c2cc1OC", "note": "[Example 202, 6,7-dimethoxy-2-methyl-N-{(1R)-1-[3-(1-methyl-1,2,3,6-tetrahydropyridin-4-yl)phenyl]ethyl}quinazolin-4-amine]", "values": [
      {"measurement": "IC50", "setting": "[1]", "result": 0.979, "unit": "µM"},
      {"measurement": "IC50", "setting": "[2]; values given in μM", "result": "> 20", "unit": "µM"}
    ]},
    {"smiles": "C=C(C)c1ccc([C@@H](C)Nc2nc(C)nc3cc(OC)c(OC)cc23)cc1", "note": "[Example 203, 6,7-dimethoxy-2-methyl-N-{(1R)-1-[4-(prop-1-en-2-yl)phenyl]ethyl}quinazolin-4-amine]", "values": [
      {"measurement": "IC50", "setting": "[1]", "result": 1.38, "unit": "µM"},
      {"measurement": "IC50", "setting": "[2]; values given in μM", "result": "> 20", "unit": "µM"}
    ]},
    {"smiles": "COc1cc2nc(C)nc(N[C@H](C)c3cccc(C4CC4)c3)c2cc1OC", "note": "[Example 204, N-[(1R)-1-(3-cyclopropylphenyl)ethyl]-6,7-dimethoxy-2-methylquinazolin-4-amine]", "values": [
      {"measurement": "IC50", "setting": "[1]", "result": 0.265, "unit": "µM"},
      {"measurement": "IC50", "setting": "[2]; values given in μM", "result": "> 20", "unit": "µM"}
    ]},
    {"smiles": "COc1cc2nc(C)nc(NC(C)c3cccc4sccc34)c2cc1OC", "note": "(centres unmarked) [Example 205, N-[1-(1-benzothiophen-4-yl)ethyl]-6,7-dimethoxy-2-methylquinazolin-4-amine]", "values": [
      {"measurement": "IC50", "setting": "[1]", "result": 0.0872, "unit": "µM"},
      {"measurement": "IC50", "setting": "[2]; values given in μM", "result": "> 20", "unit": "µM"}
    ]},
    {"smiles": "COc1cc2nc(C)nc(N[C@H](C)c3ccccc3)c2cc1OC", "note": "[Example 206, 6,7-dimethoxy-2-methyl-N-[(1R)-1-phenylethyl]quinazolin-4-amine]", "values": [
      {"measurement": "IC50", "setting": "[1]", "result": 1, "unit": "µM"},
      {"measurement": "IC50", "setting": "[2]; values given in μM", "result": "> 20", "unit": "µM"}
    ]},
    {"smiles": "COc1cc2nc(C)nc(NC(C)c3cccs3)c2cc1OC", "note": "(centres unmarked) [Example 207, 6,7-dimethoxy-2-methyl-N-[1-(thiophen-2-yl)ethyl]quinazolin-4-amine]", "values": [
      {"measurement": "IC50", "setting": "[1]", "result": 2.27, "unit": "µM"},
      {"measurement": "IC50", "setting": "[2]; values given in μM", "result": "> 20", "unit": "µM"}
    ]},
    {"smiles": "COc1cc2nc(C)nc(NC(C)c3ccc(-c4ccccc4CN4CCC(O)C4)s3)c2cc1OC", "note": "(centres unmarked) [Example 210, 1-[2-(5-{1-[(6,7-dimethoxy-2-methylquinazolin-4-yl)amino]ethyl}thiophen-2-yl)benzyl]pyrrolidin-3-ol]", "values": [
      {"measurement": "IC50", "setting": "[1]", "result": 0.109, "unit": "µM"},
      {"measurement": "IC50", "setting": "[2]; values given in μM", "result": "> 20", "unit": "µM"}
    ]},
    {"smiles": "COc1cc2nc(C)nc(NC(C)c3ccc(-c4ccccc4CN4CC[C@H](F)C4)s3)c2cc1OC", "note": "(stereo partly drawn) [Example 211, N-{1-[5-(2-{[(3S)-3-fluoropyrrolidin-1-yl]methyl}phenyl)thiophen-2-yl]ethyl}-6,7-dimethoxy-2-methylquinazolin-4-amine]", "values": [
      {"measurement": "IC50", "setting": "[1]", "result": 0.292, "unit": "µM"},
      {"measurement": "IC50", "setting": "[2]; values given in μM", "result": "> 20", "unit": "µM"}
    ]},
    {"smiles": "COc1cc2nc(C)nc(NC(C)c3ccc(-c4ccccc4)o3)c2cc1OC", "note": "(centres unmarked) [Example 213, 6,7-dimethoxy-2-methyl-N-[1-(5-phenylfuran-2-yl)ethyl]quinazolin-4-amine]", "values": [
      {"measurement": "IC50", "setting": "[1]", "result": 6.31, "unit": "µM"},
      {"measurement": "IC50", "setting": "[2]; values given in μM", "result": "> 20", "unit": "µM"}
    ]},
    {"smiles": "COc1cc2nc(C)nc(NC(C)c3cc(Br)cc4c3OCC4)c2cc1OC", "note": "(centres unmarked) [Example 214, N-[1-(5-bromo-2,3-dihydro-1-benzofuran-7-yl)ethyl]-6,7-dimethoxy-2-methylquinazolin-4-amine]", "values": [
      {"measurement": "IC50", "setting": "[1]", "result": 3.96, "unit": "µM"},
      {"measurement": "IC50", "setting": "[2]; values given in μM", "result": "> 20", "unit": "µM"}
    ]},
    {"smiles": "COc1cc2nc(C)nc(NC(C)c3cccc(Oc4ccccc4)c3)c2cc1OC", "note": "(centres unmarked) [Example 215, 6,7-dimethoxy-2-methyl-N-[1-(3-phenoxyphenyl)ethyl]quinazolin-4-amine]", "values": [
      {"measurement": "IC50", "setting": "[1]", "result": 1.16, "unit": "µM"},
      {"measurement": "IC50", "setting": "[2]; unit inferred", "result": 2.57, "unit": "µM"}
    ]},
    {"smiles": "COc1cc2nc(C)nc(NC(C)c3cccc(-c4nn[nH]n4)c3)c2cc1OC", "note": "(centres unmarked) [Example 216, 6,7-dimethoxy-2-methyl-N-{1-[3-(2H-tetrazol-5-yl)phenyl]ethyl}quinazolin-4-amine]", "values": [
      {"measurement": "IC50", "setting": "[1]", "result": 17, "unit": "µM"},
      {"measurement": "IC50", "setting": "[2]; values given in μM", "result": "> 20", "unit": "µM"}
    ]},
    {"smiles": "COc1cc2nc(C)nc(NC(C)c3cccc4cccnc34)c2cc1OC", "note": "(centres unmarked) [Example 217, 6,7-dimethoxy-2-methyl-N-[1-(quinolin-8-yl)ethyl]quinazolin-4-amine]", "values": [
      {"measurement": "inhibition at 20 µM", "setting": "[1]", "result": 50, "unit": "%"},
      {"measurement": "IC50", "setting": "[2]; values given in μM", "result": "> 20", "unit": "µM"}
    ]},
    {"smiles": "COc1cc2nc(C)nc(NC(C)c3ccc(-c4cnn(CCO)c4)s3)c2cc1OC", "note": "(centres unmarked) [Example 218, 2-[4-(5-{1-[(6,7-dimethoxy-2-methylquinazolin-4-yl)amino]ethyl}thiophen-2-yl)-1H-pyrazol-1-yl]ethanol]", "values": [
      {"measurement": "IC50", "setting": "[1]", "result": 1.37, "unit": "µM"},
      {"measurement": "IC50", "setting": "[2]; values given in μM", "result": "> 20", "unit": "µM"}
    ]},
    {"smiles": "COc1cc2nc(C)nc(NC(C)c3ccc(-c4cnc5n4CCC5)s3)c2cc1OC", "note": "(centres unmarked) [Example 219, N-{1-[5-(6,7-dihydro-5H-pyrrolo[1,2-a]imidazol-3-yl)thiophen-2-yl]ethyl}-6,7-dimethoxy-2-methylquinazolin-4-amine]", "values": [
      {"measurement": "IC50", "setting": "[1]", "result": 0.57, "unit": "µM"},
      {"measurement": "IC50", "setting": "[2]; values given in μM", "result": "> 20", "unit": "µM"}
    ]},
    {"smiles": "COc1cc2nc(C)nc(NC(C)c3ccc(-c4cnn(CCN5CCCC5)c4)s3)c2cc1OC", "note": "(centres unmarked) [Example 220, 6,7-dimethoxy-2-methyl-N-[1-(5-{1-[2-(pyrrolidin-1-yl)ethyl]-1H-pyrazol-4-yl}thiophen-2-yl)ethyl]quinazolin-4-amine]", "values": [
      {"measurement": "IC50", "setting": "[1]", "result": 0.381, "unit": "µM"},
      {"measurement": "IC50", "setting": "[2]; values given in μM", "result": "> 20", "unit": "µM"}
    ]},
    {"smiles": "COc1cc2nc(C)nc(NC(C)c3ccc(-c4cnn(C5CCCC5)c4)s3)c2cc1OC", "note": "(centres unmarked) [Example 221, N-{1-[5-(1-cyclopentyl-1H-pyrazol-4-yl)thiophen-2-yl]ethyl}-6,7-dimethoxy-2-methylquinazolin-4-amine]", "values": [
      {"measurement": "IC50", "setting": "[1]", "result": 4.65, "unit": "µM"},
      {"measurement": "IC50", "setting": "[2]; values given in μM", "result": "> 20", "unit": "µM"}
    ]},
    {"smiles": "COc1cc2nc(C)nc(NC(C)c3ccc(-c4cc[nH]n4)s3)c2cc1OC", "note": "(centres unmarked) [Example 222, 6,7-dimethoxy-2-methyl-N-{1-[5-(1H-pyrazol-3-yl)thiophen-2-yl]ethyl}quinazolin-4-amine]", "values": [
      {"measurement": "IC50", "setting": "[1]", "result": 4.44, "unit": "µM"},
      {"measurement": "IC50", "setting": "[2]; values given in μM", "result": "> 20", "unit": "µM"}
    ]},
    {"smiles": "COc1cc2nc(C)nc(NC(C)c3ccc(-c4ccccc4CN4CCC(F)(F)C4)s3)c2cc1OC", "note": "(centres unmarked) [Example 223, N-[1-(5-{2-[(3,3-difluoropyrrolidin-1-yl)methyl]phenyl}thiophen-2-yl)ethyl]-6,7-dimethoxy-2-methylquinazolin-4-amine]", "values": [
      {"measurement": "IC50", "setting": "[1]", "result": 5.6, "unit": "µM"},
      {"measurement": "IC50", "setting": "[2]; values given in μM", "result": "> 20", "unit": "µM"}
    ]},
    {"smiles": "COc1cc2nc(C)nc(NC(C)c3ccc4nsnc4c3)c2cc1OC", "note": "(centres unmarked) [Example 229, N-[1-(2,1,3-benzothiadiazol-5-yl)ethyl]-6,7-dimethoxy-2-methylquinazolin-4-amine]", "values": [
      {"measurement": "IC50", "setting": "[1]", "result": 7.82, "unit": "µM"},
      {"measurement": "IC50", "setting": "[2]; values given in μM", "result": "> 20", "unit": "µM"}
    ]},
    {"smiles": "CCOc1ccccc1-c1ccc(C(C)Nc2nc(C)nc3cc(OC)c(OC)cc23)s1", "note": "(centres unmarked) [Example 232, N-{1-[5-(2-ethoxyphenyl)thiophen-2-yl]ethyl}-6,7-dimethoxy-2-methylquinazolin-4-amine]", "values": [
      {"measurement": "IC50", "setting": "[1]", "result": 9.29, "unit": "µM"},
      {"measurement": "IC50", "setting": "[2]; values given in μM", "result": "> 20", "unit": "µM"}
    ]},
    {"smiles": "COc1cc2nc(C)nc(NC(C)c3ccc(-c4ccc(F)c5ccccc45)s3)c2cc1OC", "note": "(centres unmarked) [Example 233, N-{1-[5-(4-fluoronaphthalen-1-yl)thiophen-2-yl]ethyl}-6,7-dimethoxy-2-methylquinazolin-4-amine]", "values": [
      {"measurement": "IC50", "setting": "[1]", "result": 2, "unit": "µM"},
      {"measurement": "IC50", "setting": "[2]; values given in μM", "result": "> 20", "unit": "µM"}
    ]},
    {"smiles": "COc1cc2nc(C)nc(NC(C)c3ccc(-c4ccc(F)cc4CN)s3)c2cc1OC", "note": "(centres unmarked) [Example 234, N-[1-{5-[2-(aminomethyl)-4-fluorophenyl]thiophen-2-yl}ethyl]-6,7-dimethoxy-2-methylquinazolin-4-amine]", "values": [
      {"measurement": "IC50", "setting": "[1]", "result": 0.0654, "unit": "µM"},
      {"measurement": "IC50", "setting": "[2]; values given in μM", "result": "> 20", "unit": "µM"}
    ]},
    {"smiles": "COc1cc2nc(C)nc(NC(C)c3ccc(C4=CCOCC4)s3)c2cc1OC", "note": "(centres unmarked) [Example 235, N-{1-[5-(3,6-dihydro-2H-pyran-4-yl)thiophen-2-yl]ethyl}-6,7-dimethoxy-2-methylquinazolin-4-amine]", "values": [
      {"measurement": "IC50", "setting": "[1]", "result": 4.72, "unit": "µM"},
      {"measurement": "IC50", "setting": "[2]; values given in μM", "result": "> 20", "unit": "µM"}
    ]}
  ]
}
